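Values below derive from 48-hour exposures of cells grown in 96-well plates, with endpoints linearly interpolated between the two concentrations bracketing the appropriate inhibition level. At the GI50, growth is halved. At the TGI there is no net growth.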 Where a SMILES comes first, the peptide text is derived from it. [ ]: non-standard residue; d: D form. The star is where a group is joined. X13 = OC[C@H](CC1CCCCC1)N*; dIva = CC[C@@](C)(N)C(=O)O; Aib = CC(C)(N)C(=O)O
Assays:
Test in all cases: DTP human tumour cell line panel, 48 h
[1] = tested on: A498 renal
[2] = tested on: A549 NSCLC
[3] = tested on: ACHN renal
[4] = tested on: CCRF-CEM leukemia
[5] = tested on: COLO 205 colon
[6] = tested on: EKVX NSCLC
[7] = tested on: HCC-2998 colon
[8] = tested on: HCT-15 colon
[9] = tested on: HL-60(TB) leukemia
[10] = tested on: HOP-62 NSCLC
[11] = tested on: HOP-92 NSCLC
[12] = tested on: HS 578T breast
[13] = tested on: HT29 colon
[14] = tested on: IGROV1 ovarian
[15] = tested on: K-562 leukemia
[16] = tested on: KM12 colon
[17] = tested on: LOX IMVI melanoma
[18] = tested on: MALME-3M melanoma
[19] = tested on: MCF7 breast
[20] = tested on: MDA-MB-231 breast
[21] = tested on: MDA-MB-435
[22] = tested on: MOLT-4 leukemia
[23] = tested on: NCI-H226 lung
[24] = tested on: NCI-H23 lung
[25] = tested on: NCI-H460 lung
[26] = tested on: NCI-H522 lung
[27] = tested on: NCI/ADR-RES ovarian
[28] = tested on: OVCAR-3 ovarian
[29] = tested on: OVCAR-4 ovarian
[30] = tested on: OVCAR-5 ovarian
[31] = tested on: OVCAR-8 ovarian
[32] = tested on: PC-3 prostate
[33] = tested on: RPMI-8226 leukemia
[34] = tested on: RXF 393 renal
[35] = tested on: SF-268 CNS
[36] = tested on: SF-295 CNS
[37] = tested on: SF-539 CNS
[38] = tested on: SK-MEL-2 melanoma
[39] = tested on: SK-MEL-28 melanoma
[40] = tested on: SK-MEL-5 melanoma
[41] = tested on: SK-OV-3 ovarian
[42] = tested on: SN12C renal
[43] = tested on: SNB-19 CNS
[44] = tested on: SNB-75 CNS
[45] = tested on: SR leukemia
[46] = tested on: SW-620 colon
[47] = tested on: T-47D breast
[48] = tested on: TK-10 renal
[49] = tested on: U251 CNS
[50] = tested on: UACC-257 melanoma
[51] = tested on: UACC-62 melanoma
[52] = tested on: UO-31 renal

Structure (SMILES): CC[C@@](C)(NC(=O)C(C)(C)NC(=O)[C@@H](NC(=O)[C@@H]1CCCN1C(=O)C(C)(C)NC(=O)[C@H](CC(C)C)NC(=O)CNC(=O)C(C)(C)NC(=O)[C@@H](NC(=O)C(C)(C)NC(=O)[C@H](CCC(N)=O)NC(=O)[C@H](C)NC(=O)C(C)(C)NC(=O)[C@H](C)NC(=O)C(C)(C)NC(=O)[C@H](C)NC(=O)C(C)(C)NC(C)=O)C(C)C)C(C)C)C(=O)N[C@@H](CCC(N)=O)C(=O)N[C@@H](CCC(N)=O)C(=O)N[C@H](CO)CC1CCCCC1 (Ac-[Aib]A[Aib]A[Aib]AQ[Aib]V[Aib]GL[Aib]PV[Aib][dIva]QQ-X13)
- GI50 [1]: 1390 nM
- TGI [1]: > 5000 nM
- GI50 [2]: 3000 nM
- TGI [2]: > 5000 nM
- GI50 [3]: > 5000 nM
- TGI [3]: > 5000 nM
- GI50 [4]: 2790 nM
- TGI [4]: > 5000 nM
- GI50 [5]: 1470 nM
- TGI [5]: > 5000 nM
- GI50 [6]: > 5000 nM
- TGI [6]: > 5000 nM
- GI50 [7]: 2040 nM
- TGI [7]: > 5000 nM
- GI50 [8]: > 5000 nM
- TGI [8]: > 5000 nM
- GI50 [9]: 1440 nM
- TGI [9]: 4020 nM
- GI50 [10]: > 5000 nM
- TGI [10]: > 5000 nM
- GI50 [11]: 854 nM
- TGI [11]: 3380 nM
- GI50 [12]: 1810 nM
- TGI [12]: > 5000 nM
- GI50 [13]: 2250 nM
- TGI [13]: > 5000 nM
- GI50 [14]: 2650 nM
- TGI [14]: > 5000 nM
- GI50 [15]: 1780 nM
- TGI [15]: > 5000 nM
- GI50 [16]: 1890 nM
- TGI [16]: > 5000 nM
- GI50 [17]: 1490 nM
- TGI [17]: > 5000 nM
- GI50 [18]: 1180 nM
- TGI [18]: 3980 nM
- GI50 [19]: 281 nM
- TGI [19]: > 5000 nM
- GI50 [20]: 1530 nM
- TGI [20]: > 5000 nM
- GI50 [21]: 1550 nM
- TGI [21]: > 5000 nM
- GI50 [22]: 2650 nM
- TGI [22]: > 5000 nM
- GI50 [23]: > 5000 nM
- TGI [23]: > 5000 nM
- GI50 [24]: 1060 nM
- TGI [24]: > 5000 nM
- GI50 [25]: 1600 nM
- TGI [25]: > 5000 nM
- GI50 [26]: 1280 nM
- TGI [26]: > 5000 nM
- GI50 [27]: > 5000 nM
- TGI [27]: > 5000 nM
- GI50 [28]: 1250 nM
- TGI [28]: > 5000 nM
- GI50 [29]: 2820 nM
- TGI [29]: > 5000 nM
- GI50 [30]: 2840 nM
- TGI [30]: > 5000 nM
- GI50 [31]: > 5000 nM
- TGI [31]: > 5000 nM
- GI50 [32]: 1320 nM
- TGI [32]: > 5000 nM
- GI50 [33]: 198 nM
- TGI [33]: 1870 nM
- GI50 [34]: 1750 nM
- TGI [34]: > 5000 nM
- GI50 [35]: 1740 nM
- TGI [35]: > 5000 nM
- GI50 [36]: > 5000 nM
- TGI [36]: > 5000 nM
- GI50 [37]: 1490 nM
- TGI [37]: > 5000 nM
- GI50 [38]: 1220 nM
- TGI [38]: 3830 nM
- GI50 [39]: 2040 nM
- TGI [39]: > 5000 nM
- GI50 [40]: 1310 nM
- TGI [40]: 4840 nM
- GI50 [41]: 1890 nM
- TGI [41]: > 5000 nM
- GI50 [42]: 460 nM
- TGI [42]: > 5000 nM
- GI50 [43]: 1380 nM
- TGI [43]: > 5000 nM
- GI50 [44]: 1240 nM
- TGI [44]: > 5000 nM
- GI50 [45]: 2010 nM
- TGI [45]: > 5000 nM
- GI50 [46]: 3650 nM
- TGI [46]: > 5000 nM
- GI50 [47]: 1560 nM
- TGI [47]: > 5000 nM
- GI50 [48]: > 5000 nM
- TGI [48]: > 5000 nM
- GI50 [49]: 1490 nM
- TGI [49]: > 5000 nM
- GI50 [50]: 1000 nM
- TGI [50]: 4410 nM
- GI50 [51]: 1860 nM
- TGI [51]: > 5000 nM
- GI50 [52]: > 5000 nM
- TGI [52]: > 5000 nM
